Results from patent US20240101576A1, “HETEROCYCLIC INHIBITORS OF EGFR AND/OR HER2, FOR USE IN THE TREATMENT OF CANCER” (Scorpion Therapeutics, Inc., priority 2020, published 2024).

Columns and labels:
Assay type in all cases: cell-based
EGFR L858R (Ba/F3 cells) [1] = target: T1, EGFR L858R (Ba/F3 cells) (Homo sapiens, UniProt P00533, L858R); test: Inhibitor activity on EGFR-dependent cell growth (CellTiter-Glo, 72 h), Ba/F3 EGFR L858R; details: read-out: BaF3 L858R IC50
T1 construct: expressed in transfected cells; host or cells: Ba/F3 (murine pro-B cells), retroviral transduction, puromycin selection, IL3-independent pool
Summary of the method: (§1)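 Ba/F3 cells engineered with each EGFR variant were plated (400, 600 or 800 per well for L858R, L858R/C797S, and exon 19del/FQEA). They were exposed for 72 hours to compound serially diluted from a 10 mM DMSO stock. Remaining viable cells were quantified by CellTiter-Glo, and IC50 was curve-fitted.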

[2] = target: T2, EGFR exon 19del (Ba/F3 cells) (Homo sapiens, UniProt P00533); test: Inhibitor activity on EGFR-dependent cell growth (CellTiter-Glo, 72 h), Ba/F3 EGFR exon 19del; details: Ba/F3 EGFR exon 19del cell growth, read-out: BaF3 Del19 IC50
T2 sequence (P00533 with tags, fused parts or gaps DEL746-750): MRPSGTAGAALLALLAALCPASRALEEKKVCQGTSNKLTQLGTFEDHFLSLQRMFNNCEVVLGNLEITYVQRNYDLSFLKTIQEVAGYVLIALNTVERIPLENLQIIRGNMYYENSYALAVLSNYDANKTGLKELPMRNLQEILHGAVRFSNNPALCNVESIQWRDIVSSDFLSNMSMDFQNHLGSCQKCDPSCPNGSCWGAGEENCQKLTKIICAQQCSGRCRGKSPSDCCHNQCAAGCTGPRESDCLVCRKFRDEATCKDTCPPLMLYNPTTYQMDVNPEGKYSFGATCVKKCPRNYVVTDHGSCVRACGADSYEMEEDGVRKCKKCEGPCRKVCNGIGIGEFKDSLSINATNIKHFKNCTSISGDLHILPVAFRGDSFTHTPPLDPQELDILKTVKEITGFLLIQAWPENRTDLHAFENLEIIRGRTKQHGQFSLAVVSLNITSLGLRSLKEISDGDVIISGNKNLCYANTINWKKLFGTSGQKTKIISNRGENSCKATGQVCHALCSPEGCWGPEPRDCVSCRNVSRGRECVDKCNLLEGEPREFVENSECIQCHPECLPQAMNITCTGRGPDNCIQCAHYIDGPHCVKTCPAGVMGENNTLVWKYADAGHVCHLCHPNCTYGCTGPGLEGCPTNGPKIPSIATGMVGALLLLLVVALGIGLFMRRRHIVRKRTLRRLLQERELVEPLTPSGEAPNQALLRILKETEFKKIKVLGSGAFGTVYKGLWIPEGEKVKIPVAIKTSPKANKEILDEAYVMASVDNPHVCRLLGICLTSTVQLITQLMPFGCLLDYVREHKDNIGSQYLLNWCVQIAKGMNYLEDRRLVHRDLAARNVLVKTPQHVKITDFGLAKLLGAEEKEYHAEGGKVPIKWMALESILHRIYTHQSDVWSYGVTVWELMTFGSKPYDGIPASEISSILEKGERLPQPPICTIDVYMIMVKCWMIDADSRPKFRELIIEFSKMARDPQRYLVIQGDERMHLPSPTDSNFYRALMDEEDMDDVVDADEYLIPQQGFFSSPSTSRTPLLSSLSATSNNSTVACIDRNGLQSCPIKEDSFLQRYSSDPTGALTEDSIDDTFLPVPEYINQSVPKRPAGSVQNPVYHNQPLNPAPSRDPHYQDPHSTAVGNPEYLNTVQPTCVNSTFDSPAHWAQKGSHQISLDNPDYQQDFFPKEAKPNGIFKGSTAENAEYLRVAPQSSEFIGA
Summary of the method: as §1

[3] = target: T3, EGFR L858R/C797S (Ba/F3 cells) (Homo sapiens, UniProt P00533, C797S/L858R); test: Inhibitor activity on EGFR-dependent cell growth (CellTiter-Glo, 72 h), Ba/F3 EGFR L858R/C797S; details: read-out: BaF3 L858R/C797S IC50
T3 construct: expressed in transfected cells; host or cells: Ba/F3 (murine pro-B cells), retroviral transduction, puromycin selection, IL3-independent pool
From the text: Example A. Inhibitor Activity on EGFR-Dependent Cell Growth
Cell lines are generated by transducing Ba/F3 cells with retroviruses containing vectors with EGFR WT, EGFR L858R, EGFR exon 19del, EGFR L858R/C797S, EGFR exon 20 NPG Ins D770_N771, EGFR exon 20 ASV Ins V769_D770, EGFR exon 20 SVD Ins D770_N771, or EGFR exon 20 FQEA Ins A763_V764 genes and a puromycin selection marker. Transduced cells are selected with puromycin for 7 days and are then be transferred into culture media without Interleukin 3 (IL3). EGFR WT cells are maintained with supplemental EGF. Surviving cells are confirmed to express EGFR by Western blot and maintained as a pool. The IC50 date were included in Table 6 and Table 7.
(§2) 1.1 Cells are harvested from flask into cell culture medium and the cell number counted.
1.2 Cells are diluted with culture medium to the desired density and 40 μL of cell suspension is added into each well of 384-well cell culture plate and the seeding density is 800 (FQEA, exon 19del), 600 (WT, NPG, L858R/C797S), or 400 (ASV, SVD, L858R) cells/well.
(§3) 2 Compound Preparation and Treatment
(§4) 2.1 Test compounds are dissolved to 10 mM in a DMSO stock solution. 45 μL of stock solution is transferred to a 384 polypropylene plate (pp-plate). Perform 3-fold, 10-point dilution via transferring 15 μL compound into 30 μL DMSO using a TECAN (EVO200) liquid handler.
(§5) 2.2 Spin plates at room temperature at 1,000 RPM for 1 minute.
2.3 Transfer 120 nL of diluted compound from compound source plate into the cell plate.
2.4 After compound treatment for 72 hours, perform CTG detection for compound treatment plates as described in “Detection” section.
3.1 Plates are removed from incubators and equilibrated at room temperature for 15 minutes.
3.2 Thaw the CellTiter Glo reagents and allow to equilibrate to room temperature before the experiment.
3.3 Add 40 μL of CellTiter-Glo reagent into each well (at 1:1 to culture medium). Then place the plates at room temperature for 30 min followed by reading on EnVision.
4.1 Inhibition activity is calculated following the formula below:
% Inhibition=100×(LumHC−LumSample)/(LumHC−LumLC) • where HC is obtained from cells treated with 0.1% DMSO only; and LC is obtained from culture medium only.
4.2 2. Calculate the IC50 by fitting the Curve using Xlfit (v5.3.1.3), equation 201.
Y=Bottom+(Top−Bottom)/(1+10^((Log IC50−X)*HillSlope))

EGFR L858R (Ba/F3 cells) [4] = target: T1, EGFR L858R (Ba/F3 cells); test: Inhibitor activity on EGFR phosphorylation (pEGFR AlphaLISA, 2 h), Ba/F3 EGFR L858R
From the text: (§6) Example B. Inhibitor Activity on EGFR phosphorylation (pEGFR)
(§7) EGFR mutant Ba/F3 cells were generated by transduction with retrovirus containing vectors expressing EGFR L858R, EGFR exon 19del, EGFR L858R/C797S, EGFR exon 20 NPG Ins D770_N771, EGFR exon 20 ASV Ins V769_D770, or EGFR exon 20 SVD Ins D770_N771 genes along with a puromycin selection marker. Transduced cells are selected with puromycin for 7 days and are then be transferred into culture media without Interleukin 3 (IL3). Surviving cells are confirmed to express EGFR by Western blot and maintained as a pool. CUTO14 cells were obtained from Dr. Robert C. Doebele at the University of Colorado. The IC50 date are included in Table 6 and Table 7.
as §2
(§8) 1.2 Cells are diluted with culture medium to the desired density and 40 μL of cell suspension is added into each well of 384-well cell culture plate and the seeding density is 50K cells/well (Ba/F3) or 12.5K cells/well (CUTO14).
as §3, §4, §5
(§9) 2.3 Transfer 5 nL of diluted compound from compound source plate into the cell plate.
(§10) 2.4 After compound treatment for 2 hours, perform pEGFR detection by AlphaLISA for compound treatment plates as described in “Detection” section.
(§11) 3 Detection by pEGFR AlphaLISA (Perkin-Elmer)
(§12) 3.1 Plates are removed from incubators and equilibrated at room temperature for 10 minutes, and media was removed
(§13) 3.2 10 μL of lysis buffer is added and plates shaken at 600 rpm for 1 hr.
(§14) 3.3 Prepare acceptor mix just before use and dispense 5 μL of acceptor mix to all the wells. Shake 350 rpm for Ihr in the dark
(§15) 3.4 Prepare donor mix under low light conditions prior to use. Dispense 5 μL of donor mix to all the wells. Mix well on the shaker, seal and wrap in aluminum foil and incubate 1.5 hrs at room temperature in the dark
(§16) 3.5 Transfer 18.5 μL mixture to OptiPlate 384, and read using an Envision. The IC50 date were included in Table 6 and Table 7.

[5] = target: T2, EGFR exon 19del (Ba/F3 cells); test: Inhibitor activity on EGFR phosphorylation (pEGFR AlphaLISA, 2 h), Ba/F3 EGFR exon 19del; details: read-out: Del19 IC50 (pEGFR)
From the text: as §6, §7, §2, §8, §3, §4, §5, §9, §10, §11, §12, §13, §14, §15, §16

[6] = target: T3, EGFR L858R/C797S (Ba/F3 cells); test: Inhibitor activity on EGFR phosphorylation (pEGFR AlphaLISA, 2 h), Ba/F3 EGFR L858R/C797S
From the text: as §6, §7, §2, §8, §3, §4, §5, §9, §10, §11, §12, §13, §14, §15, §16

EGFR WT (Ba/F3 cells) = target: T4, EGFR WT (Ba/F3 cells) (Homo sapiens, UniProt P00533); test: Inhibitor activity on EGFR-dependent cell growth (CellTiter-Glo, 72 h), Ba/F3 EGFR WT; details: read-out: BaF3 WT IC50
T4 construct: expressed in transfected cells; host or cells: Ba/F3 (murine pro-B cells), retroviral transduction, puromycin selection, maintained with EGF
T4 sequence (P00533 25-1210): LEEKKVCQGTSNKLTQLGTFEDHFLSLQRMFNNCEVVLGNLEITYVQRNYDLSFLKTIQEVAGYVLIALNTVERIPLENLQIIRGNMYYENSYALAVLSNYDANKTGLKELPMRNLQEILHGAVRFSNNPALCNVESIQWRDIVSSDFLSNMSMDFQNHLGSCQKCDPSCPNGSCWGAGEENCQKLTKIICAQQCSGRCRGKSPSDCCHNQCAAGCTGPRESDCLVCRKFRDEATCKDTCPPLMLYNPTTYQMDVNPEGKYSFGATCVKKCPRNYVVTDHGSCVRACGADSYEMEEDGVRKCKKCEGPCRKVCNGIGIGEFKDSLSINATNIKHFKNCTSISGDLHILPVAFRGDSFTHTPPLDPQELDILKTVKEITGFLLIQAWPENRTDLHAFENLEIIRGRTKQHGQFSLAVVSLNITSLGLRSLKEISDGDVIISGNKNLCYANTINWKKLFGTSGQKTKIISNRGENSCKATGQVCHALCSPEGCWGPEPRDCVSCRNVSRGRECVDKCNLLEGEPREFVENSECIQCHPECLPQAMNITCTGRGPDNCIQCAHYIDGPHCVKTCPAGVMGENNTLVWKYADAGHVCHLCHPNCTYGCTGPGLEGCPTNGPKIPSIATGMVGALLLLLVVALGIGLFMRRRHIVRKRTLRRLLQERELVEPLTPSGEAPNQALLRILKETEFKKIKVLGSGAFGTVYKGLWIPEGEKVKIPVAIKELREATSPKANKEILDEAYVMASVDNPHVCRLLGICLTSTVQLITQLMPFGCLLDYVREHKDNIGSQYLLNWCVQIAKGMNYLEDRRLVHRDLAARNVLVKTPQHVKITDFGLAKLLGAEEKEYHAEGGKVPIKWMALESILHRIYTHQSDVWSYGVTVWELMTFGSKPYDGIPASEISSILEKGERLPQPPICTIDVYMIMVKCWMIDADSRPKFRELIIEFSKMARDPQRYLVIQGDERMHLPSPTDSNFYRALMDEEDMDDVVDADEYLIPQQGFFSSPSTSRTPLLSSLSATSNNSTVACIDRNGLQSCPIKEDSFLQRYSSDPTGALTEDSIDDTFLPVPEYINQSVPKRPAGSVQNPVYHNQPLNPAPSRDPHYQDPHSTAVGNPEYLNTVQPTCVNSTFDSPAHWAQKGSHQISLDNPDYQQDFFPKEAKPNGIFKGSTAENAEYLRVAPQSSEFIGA
Summary of the method: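 This growth assay used Ba/F3 cells that depend on wild-type EGFR and are kept in EGF without IL3. Compounds were made up as 10 mM DMSO stocks and diluted 3-fold over 10 points. 120 nL went onto 600 cells/well. After 72 hours, 40 μL CellTiter-Glo was added and luminescence read on EnVision after 30 min.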

[7] = target: T5, EGFR exon 20 NPG Ins D770_N771 (Ba/F3 cells) (Homo sapiens, UniProt P00533, INS770NPG); test: Inhibitor activity on EGFR-dependent cell growth (CellTiter-Glo, 72 h), Ba/F3 EGFR exon 20 NPG Ins; details: read-out: BaF3 NPG IC50
T5 construct: expressed in transfected cells; host or cells: Ba/F3 (murine pro-B cells), retroviral transduction, puromycin selection, IL3-independent pool
Summary of the method: (§17)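 IC50s derive from a sigmoidal dose–response fit of CellTiter-Glo signal. The signal was normalised between […]-treated cells and cell-free medium. Ba/F3 mutant-EGFR cells, seeded at 400–800/well depending on the line, had 72 h of exposure to a 10-point, 3-fold compound series.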

[8] = target: T6, EGFR exon 20 ASV Ins V769_D770 (Ba/F3 cells) (Homo sapiens, UniProt P00533, INS769ASV); test: Inhibitor activity on EGFR-dependent cell growth (CellTiter-Glo, 72 h), Ba/F3 EGFR exon 20 ASV Ins; details: read-out: BaF3 ASV IC50
T6 construct: expressed in transfected cells; host or cells: Ba/F3 (murine pro-B cells), retroviral transduction, puromycin selection, IL3-independent pool
T6 sequence (P00533 with tags, fused parts or gaps INS769ASV): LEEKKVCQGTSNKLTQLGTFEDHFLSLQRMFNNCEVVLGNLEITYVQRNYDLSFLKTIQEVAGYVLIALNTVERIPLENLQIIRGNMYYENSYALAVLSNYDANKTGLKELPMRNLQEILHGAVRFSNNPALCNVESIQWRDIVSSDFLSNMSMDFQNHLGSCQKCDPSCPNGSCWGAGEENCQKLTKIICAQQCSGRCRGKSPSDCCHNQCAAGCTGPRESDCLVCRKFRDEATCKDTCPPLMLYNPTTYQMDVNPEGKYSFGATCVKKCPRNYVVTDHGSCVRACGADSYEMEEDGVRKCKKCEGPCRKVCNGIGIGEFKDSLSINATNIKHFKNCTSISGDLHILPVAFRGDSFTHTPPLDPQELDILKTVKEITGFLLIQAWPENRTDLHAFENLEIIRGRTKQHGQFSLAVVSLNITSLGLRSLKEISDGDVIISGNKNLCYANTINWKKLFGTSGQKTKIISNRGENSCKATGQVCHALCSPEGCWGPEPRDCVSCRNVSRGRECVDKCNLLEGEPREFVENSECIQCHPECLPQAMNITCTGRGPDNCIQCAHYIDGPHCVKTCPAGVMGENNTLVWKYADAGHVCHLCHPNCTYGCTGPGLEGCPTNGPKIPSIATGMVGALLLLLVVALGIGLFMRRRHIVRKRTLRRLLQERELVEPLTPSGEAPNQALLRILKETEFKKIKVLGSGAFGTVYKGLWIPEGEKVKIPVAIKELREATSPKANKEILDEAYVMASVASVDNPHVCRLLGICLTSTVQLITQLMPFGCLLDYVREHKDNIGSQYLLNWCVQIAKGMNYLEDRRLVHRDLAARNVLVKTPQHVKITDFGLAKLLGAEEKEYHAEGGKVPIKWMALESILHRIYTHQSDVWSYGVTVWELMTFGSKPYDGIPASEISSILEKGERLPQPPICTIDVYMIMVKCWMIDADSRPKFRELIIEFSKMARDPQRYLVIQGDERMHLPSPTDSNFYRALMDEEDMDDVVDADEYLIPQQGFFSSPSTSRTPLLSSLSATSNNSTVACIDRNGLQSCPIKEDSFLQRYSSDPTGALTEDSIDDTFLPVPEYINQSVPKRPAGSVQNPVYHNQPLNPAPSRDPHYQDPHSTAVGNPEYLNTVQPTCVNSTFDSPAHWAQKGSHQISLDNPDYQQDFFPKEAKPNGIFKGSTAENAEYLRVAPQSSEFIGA
Summary of the method: as §17

[9] = target: T7, EGFR exon 20 SVD Ins D770_N771 (Ba/F3 cells) (Homo sapiens, UniProt P00533, INS770SVD); test: Inhibitor activity on EGFR-dependent cell growth (CellTiter-Glo, 72 h), Ba/F3 EGFR exon 20 SVD Ins; details: read-out: BaF3 SVD IC50
T7 construct: expressed in transfected cells; host or cells: Ba/F3 (murine pro-B cells), retroviral transduction, puromycin selection, IL3-independent pool
Summary of the method: as §17

[10] = target: T8, EGFR exon 20 FQEA Ins A763_V764 (Ba/F3 cells) (Homo sapiens, UniProt P00533, INS763FQEA); test: Inhibitor activity on EGFR-dependent cell growth (CellTiter-Glo, 72 h), Ba/F3 EGFR exon 20 FQEA Ins; details: read-out: BaF3 FQEA IC50
T8 construct: expressed in transfected cells; host or cells: Ba/F3 (murine pro-B cells), retroviral transduction, puromycin selection, IL3-independent pool
T8 sequence (P00533 with tags, fused parts or gaps INS763FQEA): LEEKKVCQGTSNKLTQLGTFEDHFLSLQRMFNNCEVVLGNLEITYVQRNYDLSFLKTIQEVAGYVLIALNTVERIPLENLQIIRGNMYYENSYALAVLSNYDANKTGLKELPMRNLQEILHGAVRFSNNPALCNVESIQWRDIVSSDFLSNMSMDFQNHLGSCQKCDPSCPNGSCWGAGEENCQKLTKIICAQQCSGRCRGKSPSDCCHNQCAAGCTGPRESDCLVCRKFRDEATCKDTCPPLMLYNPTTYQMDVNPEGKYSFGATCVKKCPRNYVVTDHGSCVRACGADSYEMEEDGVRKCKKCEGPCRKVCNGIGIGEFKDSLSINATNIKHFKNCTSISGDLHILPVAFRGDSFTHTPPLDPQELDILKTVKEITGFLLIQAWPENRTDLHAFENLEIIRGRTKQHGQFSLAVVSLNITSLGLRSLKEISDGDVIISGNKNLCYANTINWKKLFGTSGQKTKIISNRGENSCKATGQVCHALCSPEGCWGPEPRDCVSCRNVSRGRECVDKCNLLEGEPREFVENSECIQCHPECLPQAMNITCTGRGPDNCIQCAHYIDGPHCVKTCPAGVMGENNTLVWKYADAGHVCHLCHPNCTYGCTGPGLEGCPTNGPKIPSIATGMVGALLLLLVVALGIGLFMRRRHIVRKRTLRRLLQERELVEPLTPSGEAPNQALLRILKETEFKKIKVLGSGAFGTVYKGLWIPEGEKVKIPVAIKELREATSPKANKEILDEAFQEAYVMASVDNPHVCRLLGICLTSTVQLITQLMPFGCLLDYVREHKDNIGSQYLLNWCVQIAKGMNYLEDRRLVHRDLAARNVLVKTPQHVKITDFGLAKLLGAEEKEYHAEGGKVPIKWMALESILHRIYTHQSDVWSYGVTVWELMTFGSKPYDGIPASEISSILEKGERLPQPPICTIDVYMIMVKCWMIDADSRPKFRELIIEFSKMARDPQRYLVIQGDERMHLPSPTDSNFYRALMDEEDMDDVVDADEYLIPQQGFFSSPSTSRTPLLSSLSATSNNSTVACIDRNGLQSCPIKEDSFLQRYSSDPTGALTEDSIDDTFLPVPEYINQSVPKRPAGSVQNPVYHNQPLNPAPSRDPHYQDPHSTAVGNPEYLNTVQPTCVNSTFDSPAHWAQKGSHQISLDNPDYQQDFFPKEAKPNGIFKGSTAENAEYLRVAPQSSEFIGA
Summary of the method: as §1

| Compound | IC50 (EGFR L858R (Ba/F3 cells) [1]) | IC50 [2] | IC50 [3] | IC50 (EGFR L858R (Ba/F3 cells) [4]) | IC50 [5] | IC50 [6] | IC50 (EGFR WT (Ba/F3 cells)) | IC50 [7] | IC50 [8] | IC50 [9] | IC50 [10] |
| --- | --- | --- | --- | --- | --- | --- | --- | --- | --- | --- | --- |
| CCOc1ncc2nccc(-c3[nH]c4c(c3Nc3cccc(Cl)c3OC)C(=O)NCC4)c2n1 [compound 827, 3-[(3-chloro-2-methoxyphenyl)amino]-2-{2-ethoxypyrido[3,2-d]pyrimidin-8-yl}-1H,5H,6H,7H-pyrrolo[3,2-c]pyridin-4-one] | < 100 nM | < 100 nM | < 100 nM | < 100 nM | < 100 nM | < 100 nM | < 100 nM | < 100 nM | < 100 nM | < 100 nM | < 100 nM |
| COc1c(Cl)cccc1Nc1c(-c2ccnc3ccc(C)nc23)[nH]c2c1C(=O)NCC2 [compound 749, 3-[(3-chloro-2-methoxyphenyl)amino]-2-(6-methyl-1,5-naphthyridin-4-yl)-1H,5H,6H,7H-pyrrolo[3,2-c]pyridin-4-one] | < 100 nM | < 100 nM | < 100 nM | < 100 nM | < 100 nM | < 100 nM | 100 to 1000 nM | < 100 nM | < 100 nM | < 100 nM | < 100 nM |
| COc1c(F)cccc1Nc1c(-c2ccncn2)[nH]c2c1C(=O)NCC2C[C@H]1COCCO1 (single isomer, unassigned) [Compound 572, (7R*)-7-[(2S)-1,4-dioxan-2-ylmethyl]-3-[(3-fluoro-2-methoxyphenyl)amino]-2-(pyrimidin-4-yl)-1H,5H,6H,7H-pyrrolo[3,2-c]pyridin-4-one] | < 100 nM | < 100 nM | < 100 nM | < 100 nM | < 100 nM | < 100 nM | > 1000 nM | 100 to 1000 nM | 100 to 1000 nM | < 100 nM |  |
| COc1c(Cl)cccc1Nc1c(-c2ccncc2F)[nH]c2c1C(=O)NC[C@H]2CC1COCCO1 (stereo in doubt) [Compound 480, (7R)-3-[(3-chloro-2-methoxyphenyl)amino]-7-[(2R)-1,4-dioxan-2-ylmethyl]-2-(3-fluoropyridin-4-yl)-1H,5H,6H,7H-pyrrolo[3,2-c]pyridin-4-one] | < 100 nM | < 100 nM | < 100 nM | < 100 nM | < 100 nM | < 100 nM | 100 to 1000 nM | < 100 nM |  |  | < 100 nM |
| COc1c(F)cccc1Nc1c(-c2ccncc2F)[nH]c2c1C(=O)NC[C@H]2CC1COCCO1 (stereo in doubt) [Compound 575, (7R)-7-[(2R)-1,4-dioxan-2-ylmethyl]-3-[(3-fluoro-2-methoxyphenyl)amino]-2-(3-fluoropyridin-4-yl)-1H,5H,6H,7H-pyrrolo[3,2-c]pyridin-4-one] | < 100 nM | < 100 nM | < 100 nM | < 100 nM | < 100 nM | < 100 nM | 100 to 1000 nM | < 100 nM | < 100 nM | < 100 nM |  |
| COc1c(Cl)cccc1Nc1c(-c2ccncc2F)[nH]c2c1C(=O)NCC21CN(CC(F)F)C1 [Compound 519, 3′-[(3-chloro-2-methoxyphenyl)amino]-1-(2,2-difluoroethyl)-2′-(3-fluoropyridin-4-yl)-5′,6′-dihydro-1′H-spiro[azetidine-3,7′-pyrrolo[3,2-c]pyridin]-4′-one] | < 100 nM | < 100 nM | < 100 nM | < 100 nM | < 100 nM | < 100 nM | > 1000 nM | 100 to 1000 nM | 100 to 1000 nM | 100 to 1000 nM |  |
